Patent US20260217701A1, “SELECTIVE BET INHIBITORS AND USES THEREOF” (Tay Therapeutics Limited, priority 2022, published 2026)
“And” between values parts separate entries of the source, which are not always exact repeats. Equal values may be shown once.

Test system: imiquimod-induced psoriasis
Assay: Imiquimod-induced psoriasis model
Format: in vivo, mice
Parameters: Spleen Weight / Spleen Weight Ratio: unit not given here
Conditions: for Mean scores of the presence of erythema on the skin of animals at the area of induction of psoriasis / Mean scores of the presence of induration on the skin of animals at the area of induction of psoriasis / Mean scores of the presence of peeling on the skin of animals at the area of induction of psoriasis: mean ± SEM
Summary of the method: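 Mice given topical imiquimod (5% cream) daily on depilated backs Days 1–14; Compound A in 5% DMSO/40% PEG-400/55% saline from Day 8, clobetasol topical as reference. Daily PASI (erythema, induration, peeling, each 0–4, summed) Days 8–15; spleen weight, open-field behaviour, serum IL-1B, IL-6, IL-17, TNF-α, IL-22, IL-23 at Day 15.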

[1] = IMI + 1 mg/kg, D8 (before start of treatment)
[2] = IMI + 3 mg/kg, D8 (before start of treatment)

COCCn1cc(-c2ccccc2)c(-c2cn(C)c(=O)c3[nH]c(-c4cnn(C(F)(F)F)c4)cc23)cc1=O [Compound B, 4-(1-(2-methoxyethyl)-2-oxo-5-phenyl-1,2-dihydropyridin-4-yl)-6-methyl-2-(1-(trifluoromethyl)-1H-pyrazol-4-yl)-1,6-dihydro-7H-pyrrolo[2,3-c]pyridin-7-one]
Spleen Weight Ratio (IMI-psoriasis model, mice, 10 mg/kg, individual animals): 1026.10 and 1000.89 and 999.24 and 691.05 and 654.43 and 926.75 and 782.83 and 888.53
Spleen Weight Ratio (day 15, 1, 3, 10 mg/kg): dose-dependent decrease
efficacy on the treatment of psoriasis (highest tested dose of 10 mg/kg): very good efficacy
Mean scores of the presence of erythema on the skin of animals at the area of induction of psoriasis [1]: 2.1 ± 0.1
Mean scores of the presence of induration on the skin of animals at the area of induction of psoriasis [1]: 2.5 ± 0.2
Mean scores of the presence of peeling on the skin of animals at the area of induction of psoriasis [1]: 2.1 ± 0.1
Mean scores of the presence of erythema on the skin of animals at the area of induction of psoriasis (IMI + 1 mg/kg, D9): 1.8 ± 0.2
Mean scores of the presence of induration on the skin of animals at the area of induction of psoriasis (IMI + 1 mg/kg, D9): 2.5 ± 0.2
Mean scores of the presence of peeling on the skin of animals at the area of induction of psoriasis (IMI + 1 mg/kg, D9): 2.5 ± 0.3
Mean scores of the presence of erythema on the skin of animals at the area of induction of psoriasis (IMI + 1 mg/kg, D10): 1.8 ± 0.2
Mean scores of the presence of induration on the skin of animals at the area of induction of psoriasis (IMI + 1 mg/kg, D10): 2.3 ± 0.2
Mean scores of the presence of peeling on the skin of animals at the area of induction of psoriasis (IMI + 1 mg/kg, D10): 2.0 ± 0.2
Mean scores of the presence of erythema on the skin of animals at the area of induction of psoriasis (IMI + 1 mg/kg, D11): 2.3 ± 0.2
Mean scores of the presence of induration on the skin of animals at the area of induction of psoriasis (IMI + 1 mg/kg, D11): 2.3 ± 0.3
Mean scores of the presence of peeling on the skin of animals at the area of induction of psoriasis (IMI + 1 mg/kg, D11): 2.0 ± 0.1
Mean scores of the presence of erythema on the skin of animals at the area of induction of psoriasis (IMI + 1 mg/kg, D12): 1.8 ± 0.2
Mean scores of the presence of induration on the skin of animals at the area of induction of psoriasis (IMI + 1 mg/kg, D12): 2.0 ± 0.0
Mean scores of the presence of peeling on the skin of animals at the area of induction of psoriasis (IMI + 1 mg/kg, D12): 1.9 ± 0.1
Mean scores of the presence of erythema on the skin of animals at the area of induction of psoriasis (IMI + 1 mg/kg, D13): 1.5 ± 0.3
Mean scores of the presence of induration on the skin of animals at the area of induction of psoriasis (IMI + 1 mg/kg, D13): 2.0 ± 0.0
Mean scores of the presence of peeling on the skin of animals at the area of induction of psoriasis (IMI + 1 mg/kg, D13): 2.0 ± 0.3
Mean scores of the presence of erythema on the skin of animals at the area of induction of psoriasis (IMI + 1 mg/kg, D14): 1.8 ± 0.3
Mean scores of the presence of induration on the skin of animals at the area of induction of psoriasis (IMI + 1 mg/kg, D14): 2.0 ± 0.0
Mean scores of the presence of peeling on the skin of animals at the area of induction of psoriasis (IMI + 1 mg/kg, D14): 1.9 ± 0.2
Mean scores of the presence of erythema on the skin of animals at the area of induction of psoriasis (IMI + 1 mg/kg, D15): 1.5 ± 0.2
Mean scores of the presence of induration on the skin of animals at the area of induction of psoriasis (IMI + 1 mg/kg, D15): 1.9 ± 0.1
Mean scores of the presence of peeling on the skin of animals at the area of induction of psoriasis (IMI + 1 mg/kg, D15): 1.8 ± 0.3
Mean scores of the presence of erythema on the skin of animals at the area of induction of psoriasis [2]: 2.4 ± 0.2
Mean scores of the presence of induration on the skin of animals at the area of induction of psoriasis [2]: 2.6 ± 0.2
Mean scores of the presence of peeling on the skin of animals at the area of induction of psoriasis [2]: 2.6 ± 0.3
Mean scores of the presence of erythema on the skin of animals at the area of induction of psoriasis (IMI + 3 mg/kg, D9): 1.9 ± 0.3
Mean scores of the presence of induration on the skin of animals at the area of induction of psoriasis (IMI + 3 mg/kg, D9): 2.0 ± 0.0
Mean scores of the presence of peeling on the skin of animals at the area of induction of psoriasis (IMI + 3 mg/kg, D9): 2.1 ± 0.0
Mean scores of the presence of erythema on the skin of animals at the area of induction of psoriasis (IMI + 3 mg/kg, D10): 1.6 ± 0.2
Mean scores of the presence of induration on the skin of animals at the area of induction of psoriasis (IMI + 3 mg/kg, D10): 2.1 ± 0.1
Mean scores of the presence of peeling on the skin of animals at the area of induction of psoriasis (IMI + 3 mg/kg, D10): 2.0 ± 0.2
Mean scores of the presence of erythema on the skin of animals at the area of induction of psoriasis (IMI + 3 mg/kg, D11): 1.9 ± 0.2
Mean scores of the presence of induration on the skin of animals at the area of induction of psoriasis (IMI + 3 mg/kg, D11): 1.7 ± 0.2
Mean scores of the presence of peeling on the skin of animals at the area of induction of psoriasis (IMI + 3 mg/kg, D11): 1.9 ± 0.1
Mean scores of the presence of erythema on the skin of animals at the area of induction of psoriasis (IMI + 3 mg/kg, D12): 1.9 ± 0.1
Mean scores of the presence of induration on the skin of animals at the area of induction of psoriasis (IMI + 3 mg/kg, D12): 1.9 ± 0.1
Mean scores of the presence of peeling on the skin of animals at the area of induction of psoriasis (IMI + 3 mg/kg, D12): 1.6 ± 0.2
Mean scores of the presence of erythema on the skin of animals at the area of induction of psoriasis (IMI + 3 mg/kg, D13): 1.5 ± 0.2
Mean scores of the presence of induration on the skin of animals at the area of induction of psoriasis (IMI + 3 mg/kg, D13): 1.9 ± 0.1
Mean scores of the presence of peeling on the skin of animals at the area of induction of psoriasis (IMI + 3 mg/kg, D13): 1.6 ± 0.2
Mean scores of the presence of erythema on the skin of animals at the area of induction of psoriasis (IMI + 3 mg/kg, D14): 1.3 ± 0.2
Mean scores of the presence of induration on the skin of animals at the area of induction of psoriasis (IMI + 3 mg/kg, D14): 1.9 ± 0.1
Mean scores of the presence of peeling on the skin of animals at the area of induction of psoriasis (IMI + 3 mg/kg, D14): 1.5 ± 0.1
Mean scores of the presence of erythema on the skin of animals at the area of induction of psoriasis (IMI + 3 mg/kg, D15): 0.9 ± 0.2
Mean scores of the presence of induration on the skin of animals at the area of induction of psoriasis (IMI + 3 mg/kg, D15): 1.4 ± 0.2
